The values that follow come from US20040028734A1, “Use of anti-muscarinic agents and calcium channel blockers in combination” (priority 2000, published 2004).

In assay [1] the test system is Guinea pig tracheal strip preparations. The experiment in a line: tissue or blood. Particulars: for % Relaxation: % maximal of carbachol-induced tone, DRC to verapamil. As for the experimental part:
Again, guinea pig tracheal strip preparations were pre-contracted with 5×10^−6 M carbachol for 10 minutes before incubation with the pre-treatment drug. The relaxation (% maximal of carbachol-induced tone) induced by the pre-treatment is shown in FIG. 2, for the following groups.

For assay [2] the following is noted: Frey's syndrome, single dermal application; cited from earlier work.
Assay [3] has as its system Guinea pig tracheal strip preparations. The experiment in a line: tissue or blood. The settings on record: Cavia porcellus, 5 min. As for the experimental part:
Guinea pig tracheal strip preparations were pre-contracted with 5×10^−6 M carbachol for 10 minutes, to induce tone, before incubation with drug. […] Relaxation is expressed as % maximal relaxation induced by 5×10^−4 M papaverine after completion of concentration-response curves. […]

The conditions of assay [4]: clinical level, compared with ipratropium; cited from earlier work.
Assay [5] deals with T lymphocytes. The settings on record: cited from earlier work.

pEC50: −log10 of the molar value. Read-outs that look alike come from different tables or passages of the source.

By pEC50 is commonly meant −log10 of the EC50, conventionally taken in molar units. The low end stands for a large EC50, the high end for a small EC50. A word on the EC50: it is the concentration that produces a half-maximal response. As to `C[N+]1(C)CCC(OC(=O)C(O)(c2ccccc2)C2CCCC2)C1` (centres unmarked) [glycopyrrolate], the “% Relaxation” value in assay [1] (Group B, pre-treatment 4 × 10^−9 M) is 6.5 ± 0.8%; in assay [1] (Group C, pre-treatment 4 × 10^−10 M) it was −0.7 ± 1.4%. Moreover, in assay [2], the duration of action result is on record as “two day”. Further, the pEC50 in assay [3] is 8.03. Further, the EC50 in assay [3] (read-out: -Log EC50 (converted)) is 9.12 nM. Moreover, the “duration of action in muscarinic antagonism” value in assay [4] is “longer duration of action in muscarinic antagonism than ipratropium”.
`COc1ccc(CCN(C)CCCC(C#N)(c2ccc(OC)c(OC)c2)C(C)C)cc1OC` (centres unmarked) [verapamil] had a pEC50 in assay [1] (Cavia porcellus) of 5.30.
As for `CN1[C@@H]2CC[C@H]1C[C@@H](OC(=O)C(CO)c1ccccc1)C2` (some centres unmarked) [atropine, Atropine], in assay [5], the “effect on acetylcholine-mediated enhanced T lymphocyte proliferation” value was “abolishes this effect completely”.
